# According to patent US20030053995A1 (priority 2001, published 2003):
# Where two headings read alike, the source gives them in different places. Starred links: 1 amine or outer side, 2 acyl side, 3 side chain; linkers in the order of their positions; H or OH if unused. Positions of bridges follow the written chain, without caps; N, C: chain ends. Non-standard residues stand in square brackets, D forms with d. Residues, ends and D or L forms follow the SMILES beside them. Chains are numbered I, II in the order given. Actinocin(9to1) = Cc1c2oc3c(C)ccc(C(=O)[*:1])c3nc-2c(C(=O)[*:2])c(N)c1=O; NMeV = CN[C@H](C(=O)O)C(C)C; Sar = CNCC(=O)O
# Tests used:
# [1] = cited from earlier work; for dose excreted/detected intact in the urine: in vivo; for half-life of disappearance from plasma: after intravenous injection, after distribution; for binding to plasma proteins: result in words
# [2] = cited from earlier work
# [3] = test system: Cyclin D1 promoter (Cyclin D1-luc) in MDA-MB-468 cells; assay: EGF activation of Cyclin D1 promoter luciferase reporter; format: cell-based; settings: EGF 100 ng/ml
# Description: In FIG. 7A, MDA-MB-468 cells were transfected with a luciferase vector containing the cyclin D1 promoter with two intact ATRS or the same promoter with the ATRS mutated. […] After precipitation with the EGFR antibodies (1 Santa Cruz, 2 NeoMarkers) or normal rabbit IgG, cyclin D1 promoter region was amplified by PCR. Input nuclear DNA (In) or water (dw) were used as PCR controls.
# Targets for nuclear EGFR were identified. Since nuclear EGFR correlated with highly proliferative activity of cells, it was suspected that its target genes were likely involved in cell proliferation. One of the candidates, Cyclin D1, is a cell-cycle regulator essential for G1 phase progression. […] Two ATRS sequences are located in the proximal region of Cyclin D1 promoter between nucleotide −74 to −70 (TTTAT; SEQ ID NO:3) and −31 to −27 (TTTGT; SEQ ID NO:4), respectively. To test whether these two ATRS in Cyclin D1 promoter were responsive to EGFR activity, the reporter gene containing 163 bp of the Cyclin Dl promoter (Cyclin D1-luc) was tested. Many known transcription factor-binding sites had been eliminated from this construct but it still contained two ATRS described above.
# [4] = test system: ATRS (AT-rich consensus sequence) luciferase reporter with TK minimal promoter; assay: EGF activation of ATRS luciferase reporter; format: cell-based
# Description: (FIG. 6A) A431, (FIG. 6B) MDA-MB-468, (FIG. 6C) HBL 100, and (FIG. 6D) CHO cells.
# Next, four repeats of either the ATRS sites or the mutated sites were constructed in a luciferase reporter construct containing the mouse thymidine kinase gene (TK) minimal promoter. […] EGFR-dependent activation, however, could be restored in these two cell lines upon the cotransfection of the EGFR expression vector. Thus, the ATRS, which can bind to nuclear EGFR complex, responds to EGFR-dependent activation, whereas the mutant ATRS, which fails to bind to nuclear EGFR, loses it ability to respond to the EGFR-dependent activation.
# Plasmids and transfection. The cytoplasmic domain (645-1186), tyrosine kinase domain (645-1011), and C-terminal proline rich region (1011-1086) of human EGFR were amplified by PCR and subcloned in frame into pSG424 to generate for each domain a fusion protein containing GAL4 DNA binding proteins. The fusion protein constructs were then transfected into a variety of cell lines along with GAL4CAT or GAL4Luc reporter plasmids via liposomal DC-Cole provide by Dr. Leaf Huang at University of Pittsburgh.
# [5] = EGFR-overexpressing cell lines A431 and MDA-MB-468, EGF 100 ng/ml
compound,measurement,setting,value
"Cc1c2oc3c(C)ccc(C(=O)N[C@@H]4C(=O)N[C@H](C(C)C)C(=O)N5CCC[C@H]5C(=O)N(C)CC(=O)N(C)[C@@H](C(C)C)C(=O)O[C@@H]4C)c3nc-2c(C(=O)N[C@@H]2C(=O)N[C@H](C(C)C)C(=O)N3CCC[C@H]3C(=O)N(C)CC(=O)N(C)[C@@H](C(C)C)C(=O)O[C@@H]2C)c(N)c1=O [Actinomycin D] (I: T[dV]P[Sar][NMeV] / II: T[dV]P[Sar][NMeV]; ester I:1-I:C, II:1-II:C; linker I:N-II:N via Actinocin(9to1))",dose excreted/detected intact in the urine,[1],10%
"O=NN(CCCl)C(=O)NCCCl [Carmustine, 1,3bis (2-chloroethyl)-1-nitrosourea]",solubility in organic solvents / alcohol and lipids,[2]; result in words,highly soluble in alcohol and lipids
"O=NN(CCCl)C(=O)NC1CCCCC1 [Lomustine, 1-(2-chloro-ethyl)-3-cyclohexyl-1 nitrosourea]",solubility,[2]; 10% ethanol,0.05 mg per mL
same,solubility,[2]; absolute alcohol,70 mg per mL
same,solubility,[2]; water,< 0.05 mg per mL
same,tissue levels relative to plasma levels,[1]; 15 minutes after intravenous administration,comparable to plasma levels
CC[C@]1(O)C[C@@H]2CN(CCc3c([nH]c4ccccc34)[C@@](C(=O)OC)(c3cc4c(cc3OC)N(C)[C@H]3[C@@](O)(C(=O)OC)[C@H](OC(C)=O)[C@]5(CC)C=CCN6CC[C@]43[C@@H]65)C2)C1 [Vinblastine],half-life of disappearance from plasma,[1]; first of two half-lives,approximately 1 hours
same,half-life of disappearance from plasma,[1]; second of two half-lives,~20 h
same,dose excreted/detected intact in the urine,[1],Approximately 15%
same,binding to plasma proteins,[1],bind to plasma proteins
CC[C@]1(O)C[C@H]2CN(CCc3c([nH]c4ccccc34)[C@@](C(=O)OC)(c3cc4c(cc3OC)N(C=O)[C@H]3[C@@](O)(C(=O)OC)[C@H](OC(C)=O)[C@]5(CC)C=CCN6CC[C@]43[C@@H]65)C2)C1 [Vincristine],binding to plasma proteins,[1],bind to plasma proteins
"EGF: epidermal growth factor, ligand for EGFR",activation of Cyclin D1-luc(m) reporter with both ATRS mutated,[3],abolished
same,activation of wild-type Cyclin D1-luc reporter,[3],up to four fold
same,activation of mutant ATRS reporter construct,[4]; [5],only weakly activate
same,activation of wild-type ATRS reporter construct,[4]; [5],strongly activate
same,activation of wild type or mutant ATRS reporter,"[4]; cells with low (HBL100) or no EGFR (CHO), EGF 100 ng/ml",neither wild type nor the mutant reporter could be activated
